Data reported in patent US20200123147A1, “THIAZOLE COMPOUNDS USEFUL AS PRMT5 INHIBITORS” (Bayer Aktiengesellschaft, priority 2017, published 2020).

What was measured:
[1] = test system: PRMT5 (histone H4 Arg3 SDMA levels in MDA-MB-468 cells); experiment: In vitro assay 2: quantification of SDMA (symmetric dimethylarginine) expression levels (H4 Arg3) in cancer cells, High-Content Analysis; type: cell-based; conditions: Homo sapiens, 72 h, SDMA histone H4 (Arg3) average signal intensity per cell
Text: In Vitro Assay 2: Quantification of SDMA (Symmetric Dimethylarginine) Expression Levels (H4 Arg3) After Small Molecule Treatment of Cancer Cells
The SDMA-assay based on High-Content Analysis (HCA) enables the biological characterization of compounds inhibiting PRMT5. By this assay, substances are benchmarked on their cellular activity to modulate histone H4 Arg3 levels over broad inhibitor concentration ranges.
Cultivated cells of the human mammary gland tumor cell line MDA-MB-468 (ATCC HTB-132) were plated at a density of 2500 cells per well in a 384-well microtiter plate in 20 μL of Roswell Park Memorial Institute (RPMI) 1640 medium supplemented with 1% (v/v) glutamine, 1% (v/v) penicillin, 1% (v/v) streptomycin and 10% (v/v) fetal calf serum. After pre-incubation at 37° C. overnight, test compo unds solubilized in DMSO were added at various concentrations (0 μM, as well as in the range of 0.005 μM-30 μM; the final concentration of the solvent DMSO was 0.5% (v/v)). Cells were incubated at 37° C. for 72 h in the presence of test compounds. Thereafter, cells were fixed with 4% (v/v) paraformaldehyde in phosphate buffered saline (PBS) at room temperature for 1 h, permeabilized using 0.5% (v/v) Triton X™ 100 in PBS for 15 min and blocked with 1% (v/v) bovine serum albumin (BSA) in PBS for 30 min. In the following, cells were incubated with anti-dimethyl-histone H4 (Arg3) symmetric antibody (Millipore #07-947) at RT for 2 h. After a single washing step with blocking solution, cells were incubated with species-specific fluorescent conjugated secondary antibody Alexa Fluor™ 488 (Jackson Immuno Research #111-546-003) at RT for 2 h.
Image acquisition for cells was carried out using the confocal imaging system OPERA® (PerkinElmer). Images were captured using two channels: Hoechst 33342 stain (DNA) and Alexa Fluor™ 488 (SDMA staining); and were analyzed using the MetaXpress® software (Molecular Devices). Exposure times were chosen for individual experiments to prevent saturation and allow for quantification in the linear range. A minimum of 500 cells in 5 field views were analyzed per well using 10× water immersion objective with a two-fold binning.
The image analysis routine was developed in MetaXpress®. The standardized image-analysis module “Count Nuclei” and the images of the DNA-channel were used for nuclei segmentation. The segmented nuclei were filtered for size, shape and signal intensity to exclude possible apoptotic and non-viable cells along with metaphase nuclei. These phenotypes result in overestimated antibody signals, due to their strong chromatin compaction. For further processing, binary object masks were calculated from the segmented and positively selected nuclei. The binary masks served as templates to be superimposed over the images of the SDMA channel. The SDMA average signal intensity per cell was quantified for every image set. The assay raw data were further analyzed by four parameter logistic regression analysis using Genedata's Assay Analyzer® and Condoseo® software to determine the IC50 value for each tested compound.

[2] = molecular target: T1, PRMT5:MEP50 protein complex (Homo sapiens, UniProt O14744); experiment: In vitro assay 1: PRMT5 SPA assay ("EAA"); type: biochemical; conditions: scintillation proximity assay, methylation of biotinylated H4(1-24) peptide, 3H-SAM, 60 min at 22° C.
T1 construct: FLAG (N); made in house; host or cells: Hi5 insect cells
T1 sequence (O14744 whole entry, species assumed): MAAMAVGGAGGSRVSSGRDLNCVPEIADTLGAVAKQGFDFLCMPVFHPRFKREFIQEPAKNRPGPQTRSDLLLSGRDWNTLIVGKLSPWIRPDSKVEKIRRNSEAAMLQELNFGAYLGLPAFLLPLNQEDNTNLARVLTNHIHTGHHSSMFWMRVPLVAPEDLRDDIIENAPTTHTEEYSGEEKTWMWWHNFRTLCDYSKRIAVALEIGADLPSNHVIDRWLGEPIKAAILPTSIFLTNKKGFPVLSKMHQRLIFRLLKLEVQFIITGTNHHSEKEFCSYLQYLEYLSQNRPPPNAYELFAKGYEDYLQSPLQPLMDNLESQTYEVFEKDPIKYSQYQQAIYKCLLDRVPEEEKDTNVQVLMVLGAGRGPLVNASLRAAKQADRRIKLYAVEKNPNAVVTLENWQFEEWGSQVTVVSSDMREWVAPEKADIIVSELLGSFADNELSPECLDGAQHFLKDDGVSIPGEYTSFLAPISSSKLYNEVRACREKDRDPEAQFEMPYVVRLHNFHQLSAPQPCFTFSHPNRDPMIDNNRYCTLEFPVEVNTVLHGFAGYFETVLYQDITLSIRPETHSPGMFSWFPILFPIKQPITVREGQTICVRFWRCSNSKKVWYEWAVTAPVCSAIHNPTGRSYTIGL
T1 sequence (Q9BQA1 whole entry partner, species assumed): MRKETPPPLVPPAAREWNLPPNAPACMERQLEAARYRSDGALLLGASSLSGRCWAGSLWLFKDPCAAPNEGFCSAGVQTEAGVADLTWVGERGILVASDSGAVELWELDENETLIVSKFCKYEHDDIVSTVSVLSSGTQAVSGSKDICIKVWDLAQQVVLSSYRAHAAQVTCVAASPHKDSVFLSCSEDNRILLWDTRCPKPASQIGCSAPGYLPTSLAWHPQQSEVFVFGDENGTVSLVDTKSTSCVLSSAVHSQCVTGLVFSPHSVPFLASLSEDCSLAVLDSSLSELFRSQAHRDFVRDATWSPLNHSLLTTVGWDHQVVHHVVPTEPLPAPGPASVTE
Text: In Vitro Assay 1: PRMT5 SPA Assay (“EAA”)
PRMT5 inhibitory activities of the compounds described in the present invention were quantified using a scintillation proximity assay (SPA) which measures methylation by the enzyme of a synthetic, biotinylated peptide corresponding to the N-terminal sequence of Histone H4 (a.a. 1-24). The peptide of sequence […]-K(Btn)-amide is commercially available (e.g. from Biosyntan) and will be herein referred to as H4(1-24). The PRMT5:MEP50 protein complex used in the assay was produced in house following standard protocols. Briefly, full length PRMT5 and MEP50 constructs respectively tagged with N-terminal FLAG and 6× His sequences were co-expressed in Hi5 insect cells, and the recombinant protein complex was purified by FLAG affinity and size exclusion chromatography.
In a typical assay 11 different concentrations of each compound (0.1 nM, 0.33 nM, 1.1 nM, 3.8 nM, 13 nM, 44 nM, 0.15 μM, 0.51 μM, 1.7 μM, 5.9 μM and 20 μM) were tested in duplicate within the same microtiter plate. To this end, 100-fold concentrated compound solutions (in DMSO) were previously prepared by serial dilution (1:3.4) of 2 mM stocks in a clear low volume 384-well source microtiter plate (Greiner Bio-One), from which 50 nl of compounds were transferred into a white low volume test microtiter plate from the same supplier. Subsequently, 2.5 μL PRMT5 in aqueous assay buffer [20 mM Bicine pH 8.0 (Alfa Aesar), 7.5 mM Tris(2-carboxyethyl) phosphine hydrochloride (TCEP, Sigma), 0.1% (w/v) bovine gamma globuline (BGG, Sigma), 0.002% (v/v) Tween-20 (Sigma)] were added to the compounds in the test plate to a final enzyme concentration of—typically—7.5 nM (this parameter was adjusted depending on the activity of the enzyme lot in order to be within the linear dynamic range of the assay). The samples were then incubated for 15 min at 22° C. to allow pre-equilibration of the putative enzyme-inhibitor complexes before the start of the methylation reaction, which was initiated by the addition of 2.5 μL 2-fold concentrated solution (in assay buffer) of “cold” S-Adenosyl-L-Methionine (SAM, Sigma, final concentration: 0.5 μM), tritiated 3H-SAM (Perkin Elmer, final concentration: 0.5 μM) and H4(1-24) peptide substrate (final concentration: 0.06 μM). The resulting mixture (5 μL final volume) was shortly centrifuged (2 min., 1500 rpm) and incubated at 22° C. during 60 min. Thereupon the reaction was stopped by adding 3 μL of Streptavidin PS SPA imaging beads (Perkin Elmer, final concentration of 0.375 μg/μL) and “cold” SAM (AK Scientific, 250 μM final concentration) for non-specific binding reduction. Plates containing the stopped reaction were sealed with transparent adhesive foil (Perkin Elmer), centrifuged (2 min., 1500 rpm), and further incubated either 1 h at 22° C. or overnight at 4° C. in order to allow the SPA signals to develop. Subsequently, the amount of product was evaluated by measuring the energy transfer from the β-particles emitted by the 3H-labeled substrate to the Europium scintillator co-polymerized in the polystyrene matrix of the PS imaging beads, using the standard settings for this purpose of a Viewlux (Perkin-Elmer) CCD plate imaging device (emission filter 613/55 (IFP).
The resulting scintillation counts were taken as indicator for the amount of methylated peptide per well. The data were normalised using two sets of control wells (typically 16 each) for high—(=enzyme reaction with DMSO instead of test compound=0%=minimum inhibition) and low—(=all assay components without enzyme=100%=maximum inhibition) PRMT5 activity. IC50 values were calculated by fitting the normalized inhibition data to a 4-parameter logistic equation using the “Screener” analysis software from Genedata.

SMILES | IC50 [1] [µM] | IC50 [2] [nM]
Cc1ccc(Nc2nc(C(=O)Nc3cc(C(C)(C)C)on3)cs2)cc1Cl [Example 18, N-(5-tert-Butyl-1,2-oxazol-3-yl)-2-[(3-chloro-4-methylphenyl)amino]-1,3-thiazole-4-carboxamide] | ≥ 30 | 819
CC(C)(C)c1cc(NC(=O)c2csc(Nc3ccccc3)n2)no1 [Example 3, N-(5-tert-Butyl-1,2-oxazol-3-yl)-2-(phenylamino)-1,3-thiazole-4-carboxamide] | 25.4 | 177
O=C(Nc1cc(-c2ccccc2)[nH]n1)c1csc(Nc2ccc(Cl)cc2)n1 [Example 1, 2-[(4-Chlorophenyl)amino]-N-(5-phenyl-1H-pyrazol-3-yl)-1,3-thiazole-4-carboxamide] | ≥ 30 | 54.8
CC(C)(C)c1cc(NC(=O)c2csc(Nc3ccc(Cl)cc3)n2)no1 [Example 4, N-(5-tert-Butyl-1,2-oxazol-3-yl)-2-[(4-chlorophenyl)amino]-1,3-thiazole-4-carboxamide] | 20.8 | 104
Cn1ccc(NC(=O)c2csc(Nc3ccccc3)n2)n1 [Example 23, N-(1-Methyl-1H-pyrazol-3-yl)-2-(phenylamino)-1,3-thiazole-4-carboxamide] | 23.2 | 1610
CC(C)(C)c1cc(NC(=O)c2csc(Nc3cccc(Cl)c3)n2)no1 [Example 48, N-(5-tert-Butyl-1,2-oxazol-3-yl)-2-[(3-chlorophenyl)amino]-1,3-thiazole-4-carboxamide] |  | 2990
CC(C)(C)c1cc(NC(=O)c2csc(Nc3ccc(F)cn3)n2)no1 [Example 6, N-(5-tert-Butyl-1,2-oxazol-3-yl)-2-[(5-fluoropyridin-2-yl)amino]-1,3-thiazole-4-carboxamide] |  | 118
CC(C)(C)c1cc(NC(=O)c2csc(Nc3ccccc3C(=O)Nc3cc4ccccc4cn3)n2)no1 [Example 47, N-(5-tert-Butyl-1,2-oxazol-3-yl)-2-{[2-(isoquinolin-3-ylcarbamoyl)phenyl]amino}-1,3-thiazole-4-carboxamide] |  | 1300
Cc1c(NC(=O)c2csc(Nc3ccc(Cl)cc3)n2)noc1C(C)(C)C [Example 29, N-(5-tert-Butyl-4-methyl-1,2-oxazol-3-yl)-2-[(4-chlorophenyl)amino]-1,3-thiazole-4-carboxamide] |  | 9680
Cc1cccc(Nc2nc(C(=O)Nc3cc(C(C)(C)C)on3)cs2)c1 [Example 43, N-(5-tert-Butyl-1,2-oxazol-3-yl)-2-[(3-methylphenyl)amino]-1,3-thiazole-4-carboxamide] |  | 512
O=C(Nc1ccn(CCO)n1)c1csc(Nc2ccccc2)n1 [Example 28, N-[1-(2-Hydroxyethyl)-1H-pyrazol-3-yl]-2-(phenylamino)-1,3-thiazole-4-carboxamide] |  | 9100
CC(C)(C)c1cc(NC(=O)c2csc(Nc3cccc(F)c3F)n2)no1 [Example 52, N-(5-tert-Butyl-1,2-oxazol-3-yl)-2-[(2,3-difluorophenyl)amino]-1,3-thiazole-4-carboxamide] |  | 12300
CC(C)(C)c1cc(NC(=O)c2csc(Nc3ccc(F)nc3)n2)no1 [Example 53, N-(5-tert-Butyl-1,2-oxazol-3-yl)-2-[(6-fluoropyridin-3-yl)amino]-1,3-thiazole-4-carboxamide] |  | 15200
O=C(c1csc(Nc2ccc(Cl)cc2)n1)N1CCC(N2CCc3ccccc3C2)CC1 [Example 27, {2-[(4-Chlorophenyl)amino]-1,3-thiazol-4-yl}{4-[3,4-dihydroisoquinolin-2(1H)-yl]piperidin-1-yl}methanone] |  | 7610
CC(C)(C)c1cc(NC(=O)c2csc(NCC3CCCO3)n2)no1 (racemic) [Example 49, (rac)-N-(5-tert-Butyl-1,2-oxazol-3-yl)-2-{[-tetrahydrofuran-2-ylmethyl]amino}-1,3-thiazole-4-carboxamide] |  | 5680
CC(C)(C)c1cc(NC(=O)c2csc(Nc3ccc(C#N)cc3)n2)no1 [Example 24, N-(5-tert-Butyl-1,2-oxazol-3-yl)-2-[(4-cyanophenyl)amino]-1,3-thiazole-4-carboxamide] |  | 2540
CC(C)(C)c1cc(NC(=O)c2csc(Nc3cc(Cl)ccn3)n2)no1 [Example 36, N-(5-tert-Butyl-1,2-oxazol-3-yl)-2-[(4-chloropyridin-2-yl)amino]-1,3-thiazole-4-carboxamide] |  | 105
CC(C)(C)c1cc(NC(=O)c2csc(Nc3ccc4ccoc4c3)n2)no1 [Example 40, 2-(1-Benzofuran-6-ylamino)-N-(5-tert-butyl-1,2-oxazol-3-yl)-1,3-thiazole-4-carboxamide] |  | 350
CC(C)(C)c1cc(NC(=O)c2csc(Nc3ccccc3)n2)n[nH]1 [Example 16, N-(5-tert-Butyl-1H-pyrazol-3-yl)-2-(phenylamino)-1,3-thiazole-4-carboxamide] |  | 438
O=C(NCCCN1CCc2ccccc2C1)c1csc(Nc2ccc(Cl)cc2)n1 [Example 26, 2-[(4-Chlorophenyl)amino]-N-[3-(3,4-dihydroisoquinolin-2(1H)-yl)propyl]-1,3-thiazole-4-carboxamide] |  | 7850
C#Cc1cccc(Nc2nc(C(=O)Nc3cc(C(C)(C)C)on3)cs2)c1 [Example 51, N-(5-tert-Butyl-1,2-oxazol-3-yl)-2-[(3-ethynylphenyl)amino]-1,3-thiazole-4-carboxamide] |  | 10500
O=C(Nc1cnn(C2COC2)c1)c1csc(Nc2ccc(Cl)cc2)n1 [Example 31, 2-[(4-Chlorophenyl)amino]-N-[1-(oxetan-3-yl)-1H-pyrazol-4-yl]-1,3-thiazole-4-carboxamide] |  | 15100
